Source: patent publication US20220402984A1, “LYSIN-ANTIMICROBIAL PEPTIDE (AMP) POLYPEPTIDE CONSTRUCTS, LYSINS, ISOLATED POLYNUCLEOTIDES ENCODING SAME AND USES THEREOF” (priority 2018, published 2022)
Where two headings read alike, the source gives them in different places.

What was measured:
[1] = tested on: Staphylococcus aureus; assay: Daptomycin MIC in […] (positive control); type: cell-based; settings: S. aureus
Experimental: As a positive control, the impact of […] ® on daptomycin (DAP) activity against Staphylococcus aureus was also tested.

[2] = tested on: carbapenem-resistant P. aeruginosa strains; type: cell-based, Pseudomonas aeruginosa
Experimental: Such resensitization may be determined by combining the present lysins or lysin-AMP polypeptide constructs with an antibiotic in a checkerboard assay as described herein. Antibiotic-resistant bacteria, such as carbapenem-resistant P. aeruginosa, are added to the lysin or lysin-AMP polypeptide construct combination. […] See Clinical and Laboratory Standards Institute (CLSI), CLSI. […] M100 Performance Standards for Antimicrobial Susceptibility Testing; 29th Edition. Clinical and Laboratory Standards Institute, Wayne, Pa., which is herein incorporated by reference in its entirety.
Up to seven carbapenem-resistant isolates were assessed. […] See Clinical and Laboratory Standards Institute (CLSI), CLSI. […] M100 Performance Standards for Antimicrobial Susceptibility Testing; 29th Edition. Clinical and Laboratory Standards Institute, Wayne, Pa.

[3] = tested on: P. aeruginosa isolate CFS 1558 (PA20); assay: Rabbit pulmonary model establishment: inoculum and meropenem static dose; type: in vivo; settings: for Bacterial Burden, Kidneys / Bacterial Burden, Lung 1 / Bacterial Burden, Lung 2 / Bacterial Burden, Spleen: sacrificed 18-24 hours after last dose
Text: 3×10^9 CFU of the P. aeruginosa isolate was used to challenge the rabbits during the efficacy study described below.

[4] = tested on: P. aeruginosa (strain WC-452); assay: 21-day serial passage resistance assay; type: cell-based, Pseudomonas aeruginosa; settings: over 18 days
Experimental: […]. An analysis of bacterial resistance was performed using P. aeruginosa (strain WC-452) over 21 days of serial passage in the presence of a GN-lysin dilution series (in duplicate). […] The well with the highest concentration of GN lysin in which bacterial growth was seen was then used as the inoculum for the next day's passage, and the process was repeated over a 21 day period. The MIC at each daily time-point was recorded, and resistance was measured as a step-wise increase in MIC.

[5] = Meropenem 10 mg/kg, three times a day subcutaneous for two days
[6] = Meropenem 20 mg/kg, three times a day subcutaneous for two days
[7] = Meropenem 30 mg/kg, three times a day subcutaneous for two days
[8] = Meropenem 40 mg/kg, three times a day subcutaneous for two days

For daptomycin, the “fold increase in MIC” value ([1]; 0.09% SURVANTA) was 32, the “fold increase in MIC” value ([1]; 0.19% SURVANTA) was 32 and the “fold increase in MIC” value ([1]; 1.56% SURVANTA) was 128. For the same compound, the “fold increase in MIC” value ([1]; 3.15% SURVANTA) was 128.
In the case of `C[C@@H](O)[C@H]1C(=O)N2C(C(=O)O)=C(SCCN=CN)C[C@H]12` [Imipenem, imipenem], the “Antibiotic MIC Alone” value ([2]; IPM + GN351 vs. WC-452) is reported as 16 (R), the “Antibiotic MIC Alone” value ([2]; IPM + GN370 vs. WC-452) is reported as 16 (R) and the “Antibiotic MIC Alone” value ([2]; IPM + GN428 vs. WC-452) is reported as 16 (R).
`C[C@@H](O)[C@H]1C(=O)N2C(C(=O)O)=C(S[C@@H]3CN[C@H](C(=O)N(C)C)C3)[C@H](C)[C@H]12` [Meropenem, meropenem] was tested, and the “Antibiotic MIC Alone” value ([2]; MEM + GN351 vs. WC-452) was 16 (R), the “Antibiotic MIC Alone” value ([2]; MEM + GN370 vs. WC-452) was 16 (R) and the “Antibiotic MIC Alone” value ([2]; MEM + GN428 vs. WC-452) was 16 (R). The “Bacterial Burden, Kidneys” value [3, 5] was 4.36 ± 0.43 log10 CFU/g, the “Bacterial Burden, Lung 1” value [3, 5] was 7.39 ± 0.34 log10 CFU/g and the “Bacterial Burden, Lung 2” value [3, 5] was 7.42 ± 0.64 log10 CFU/g. For the same compound, the “Bacterial Burden, Spleen” value [3, 5] was 4.01 ± 0.10 log10 CFU/g, the “Bacterial Burden, Kidneys” value [3, 6] was 4.51 ± 0.73 log10 CFU/g and the “Bacterial Burden, Lung 1” value [3, 6] was 6.85 ± 1.09 log10 CFU/g. For the same compound, the “Bacterial Burden, Lung 2” value [3, 6] was 6.97 ± 1.19 log10 CFU/g, the “Bacterial Burden, Spleen” value [3, 6] was 4.74 ± 0.57 log10 CFU/g and the “Bacterial Burden, Kidneys” value ([3]; Meropenem 25 mg/kg) was 2.06 ± 0.58 log10 CFU/g. For the same compound, the “Bacterial Burden, Lung 1” value ([3]; Meropenem 25 mg/kg) was 4.55 ± 1.65 log10 CFU/g, the “Bacterial Burden, Lung 2” value ([3]; Meropenem 25 mg/kg) was 3.73 ± 1.03 log10 CFU/g and the “Bacterial Burden, Spleen” value ([3]; Meropenem 25 mg/kg) was 2.15 ± 0.78 log10 CFU/g. The “Bacterial Burden, Kidneys” value [3, 7] was 2.24 ± 0.64 log10 CFU/g, the “Bacterial Burden, Lung 1” value [3, 7] was 4.83 ± 1.19 log10 CFU/g and the “Bacterial Burden, Lung 2” value [3, 7] was 4.42 ± 1.14 log10 CFU/g. The “Bacterial Burden, Spleen” value [3, 7] was 1.97 ± 0.63 log10 CFU/g, the “Bacterial Burden, Kidneys” value [3, 8] was 2.34 ± 0.65 log10 CFU/g and the “Bacterial Burden, Lung 1” value [3, 8] was 4.66 ± 0.11 log10 CFU/g. The “Bacterial Burden, Lung 2” value [3, 8] was 2.95 ± 1.19 log10 CFU/g, the “Bacterial Burden, Spleen” value [3, 8] was 1.93 ± 0.47 log10 CFU/g and the “meropenem dosage establishing a static effect” value ([3]; three times a day, subcutaneous, two days, rabbits) was 20 mg/kg.
For `O=C(O)c1cn(C2CC2)c2cc(N3CCNCC3)c(F)cc2c1=O` [Ciprofloxacin], the “increase in MIC during serial passage” value [4] was 16 fold.
